Literature values, collected in US12697292B2, “Method for treating human hair with agents containing mixtures of organic C1-C6 alkoxy siloxanes” (Henkel AG & Co. KGaA, priority 2021, dated 2026).

Details: 25° C.

SMILES | solubility in water | water solubility
O=C([O-])C1=NN(c2ccc(S(=O)(=O)[O-])cc2)C(=O)C1N=Nc1ccc(S(=O)(=O)[O-])cc1.[Na+].[Na+].[Na+] (centres unmarked) [Acid Yellow 23, trisodium salt of 4,5-dihydro-5-oxo-1-(4-sulfophenyl)-4-((4-sulfophenyl)azo)-1H-pyrazole-3−carboxylic acid] | readily soluble | 
O=C([O-])c1c(Cl)c(Cl)c(Cl)c(Cl)c1-c1c2cc(Br)c(=O)c(Br)c-2oc2c(Br)c([O-])c(Br)cc12.[Na+].[Na+] [Acid Red 92, disodium salt of 3,4,5,6-tetrachloro-2-(1,4,5,8-tetrabromo-6-hydroxy-3-oxanthene-9-yl) benzoic acid] |  | greater than 10 g/L
Nc1cc(S(=O)(=O)[O-])cc2cc(S(=O)(=O)[O-])c(N=Nc3ccccc3)c(O)c12.[Na+].[Na+] [Acid Red 33, dianhydro salt of 5-amino-4-hydroxy-3-(phenylazo)-naphthalene-2,7-disulfonate] |  | 2500 µg/mL
CCN(Cc1cccc(S(=O)(=O)[O-])c1)c1ccc(C(=C2C=CC(=[N+](CC)Cc3cccc(S(=O)(=O)[O-])c3)C=C2)c2ccccc2S(=O)(=O)[O-])cc1.[Na+].[Na+] [Acid Blue 9] |  | more than 20 wt. %
O=S(=O)([O-])c1ccc(N=Nc2c(O)ccc3ccccc23)cc1.[Na+] [Acid Orange 7, sodium salt of 4-[(2-hydroxy-1-naphthyl)azo] benzene sulphonate] |  | more than 7 g/L
